Reference: patent US5294725A, “Scopularin” (E. R. Squibb & Sons, Inc., priority 1989, dated 1994)
Values after ≈ are worked out from the molar mass of the structure shown.

Tests used:
[1] = biological target: T1, lanosterol demethylase (Candida albicans, UniProt P10613); assay: Radiolabeled metabolic assay of lanosterol demethylase inhibition (14C-acetate, lanosterol accumulation); assay type: cell-based; details: Candida albicans SC5314, 1 hour, 30°, TLC autoradiography
T1 construct: endogenous in cells; host or cells: Candida albicans SC5314
Procedure: (§1) The inhibition of lanosterol demethylase was determined by two methods: the spectrophotometric carbon monoxide binding assay of Omura and Sato (J. Biol. Chem. 239:2370-2378, 1964) and by a radiolabeled metabolic assay.
The ability of scopularin and its alcohol to inhibit the lanosterol demethylase of Candida albicans can also be visualized by a metabolic assay. Candida albicans SC5314, was grown overnight at 30° with shaking in the same medium as that used above. Cells were harvested by centrifugation and resuspended in water to give an optical density of 0.3 at 660 nm. 750 μl of this cell suspension, 300 μl of a medium containing 0.35 g Difco yeast nitrogen base without amino acids, 1 g glucose and distilled water to 10 ml, 100 μl of test material and distilled water were combined to give a final volume of 1.425 ml. This was incubated for 15 minutes at 30° C. with shaking, then 3 μCi ^14 C-acetate was added and continued to incubate for 1 hour. Cells were harvested by centrifugation and extracted with 2×0.5 ml methanol; centrifuged, decanted supernate and repeated the extraction with […] methanol-benzene (1:1). Centrifuged, decanted; combined supernates, dried and resuspended in 100 μl chloroform-methanol (1:1). The aliquots were spotted onto silica gel 60 (Merck) plates and developed chromatographically in a solvent containing dichloromethane-acetone (60:1). […]

[2] = test system: Candida albicans; assay: Agar dilution MIC assay; assay type: cell-based
Procedure: (§2) The following methodology was used to determine the miniumum inhibitory concentration (hereinafter referred to as MIC) of scopularin.
(§3) The aerobic test organisms were grown in approximately 15-20 ml of Antibiotic Assay Broth (Difco) by inoculating (in tubes) the broth with a loopful of the organism from a BHI (Difco) agar slant. The inoculated tubes were incubated at 37° C. for 18 to 24 hours. These cultures are assumed to contain 10^7 colony forming units (CFU) per ml and the cultures were diluted 1:100 to give a final inoculum level of 10^5 CFU dilutions were made with Yeast Beef Broth (Difco).
(§4) Scopularin was dissolved in an appropriate diluent at a concentration of 1,000 μg/ml. Two-fold dilutions were made in Yeast Beef Broth (Difco), resulting in a range from 1000 μg/ml to 0.5 μg/ml. 1.5 ml of each dilution was placed into individual petri dishes to which 13.5 ml of K-10 agar was added. The composition of K-10 agar is:
(§5) The final drug concentration in the agar ranged from 100 μg/ml to 0.05 μg/ml. Organism growth control plates containing agar only were prepared and inoculated before and after the test plates. The organisms were applied to the agar surface of each plate with a Denyl Multipoint Inoculator (which delivers approximately 0.001 ml of each organism) resulting in a final inoculum of 10^4 CFU on the agar surface.
(§6) The plates were incubated at 37° C. for 18 hours and the MICs determined. The MIC is the lowest concentration of compound inhibiting growth of the organism.

[3] = test system: Candida krusei; assay: Agar dilution MIC assay; assay type: cell-based; details: Pichia kudriavzevii, SC2967, 18 h
Procedure: as §2, §3, §4, §5, §6

[4] = biological target: T1, lanosterol demethylase; assay: Spectrophotometric carbon monoxide binding assay (Omura and Sato); details: Candida albicans SGY677, read-out: 50% inhibition of carbon monoxide binding
Procedure: as §1
Cells of Candida albicans, SGY677, were grown overnight without shaking at 30° C. in a medium consisting of yeast extract 1% , peptone 2%, glucose 2% and distilled water. Cells were harvested by centrifugation and resuspended in 0.65M mannitol to an optical density at 600 nm of 2.5. At this density 1 ml of cells was equal to 6.7 mg constant dry weight (105° C. for 18 hours).

T1 sequence (P10613 whole entry): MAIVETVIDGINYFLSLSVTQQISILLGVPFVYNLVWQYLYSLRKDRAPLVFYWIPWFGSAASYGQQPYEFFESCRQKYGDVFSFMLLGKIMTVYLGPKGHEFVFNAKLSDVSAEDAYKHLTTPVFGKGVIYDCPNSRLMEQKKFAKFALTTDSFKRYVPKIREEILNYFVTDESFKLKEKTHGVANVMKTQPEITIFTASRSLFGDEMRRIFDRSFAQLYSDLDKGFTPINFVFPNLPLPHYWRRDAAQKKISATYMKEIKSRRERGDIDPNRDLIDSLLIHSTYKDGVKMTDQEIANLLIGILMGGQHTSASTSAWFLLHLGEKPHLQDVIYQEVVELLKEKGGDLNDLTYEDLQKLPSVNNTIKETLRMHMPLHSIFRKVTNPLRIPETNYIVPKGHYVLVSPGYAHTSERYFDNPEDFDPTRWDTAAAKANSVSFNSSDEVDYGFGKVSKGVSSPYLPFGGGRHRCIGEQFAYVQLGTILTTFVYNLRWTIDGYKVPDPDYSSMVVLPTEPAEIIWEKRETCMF

Structure (SMILES)	concentration causing accumulation of lanosterol, consistent with inhibition of lanosterol demethylase [1] [µM]	MIC ([2]; SC12, 18 h) [µg/mL]	MIC ([2]; SC14, 18 h) [µg/mL]	MIC [3] [µg/mL]	IC50 [4] [µM]
CCC/C=C/C=C/C=C(\C)[C@H]1OC[C@@H](C)[C@@H](OC)[C@@H]1OC(=O)CN (relative stereo) [Scopularin, (2α, 3β, 4α, 5α)-Tetrahydro-4-methoxy-5-methyl-2-(1-methyl-1,3,5-nonatrienyl)-2H-pyran-3-ol, amino-acetate ester]	360	100 (≈ 296 µM)	50 (≈ 148 µM)	0.4 (≈ 1.19 µM)	–
CCCC=CC=CC=C(C)[C@H]1OC[C@@H](C)[C@@H](OC)[C@@H]1O (relative stereo) [alcohol]	14	–	–	–	14
